Assay results as given in the supplement of paper PMC10307832.

Legend:
Assay in all cases: relative viability (nuclei count vs DMSO), 5 days (fraction); higher = more cells survive
201T = system: 201T
In short: (§1)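 Lung cancer cell lines in 1536-well plates got either a single drug or a fixed anchor-drug dose together with five library-drug doses (not always all listed) in √10 steps, by pin tool, on the day after seeding. Nuclei were counted after 5 days, and relative viability is the treated-to-vehicle ratio of nuclei counts. Values are medians of duplicate plates.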

NCI-H2085 = system: NCI-H2085
In short: as §1

LOU-NH91 = system: LOU-NH91
In short: as §1

HCC-44 = system: HCC-44
In short: as §1

NCI-H1734 = system: NCI-H1734
In short: as §1

RERF-LC-KJ = system: RERF-LC-KJ
In short: as §1

NCI-H2405 = system: NCI-H2405
In short: as §1

SW 900 = system: SW 900
In short: as §1

NCI-H520 = system: NCI-H520
In short: as §1

NCI-H2347 = system: NCI-H2347
In short: as §1

NCI-H2170 = system: NCI-H2170
In short: as §1

NCI-H1793 = system: NCI-H1793
In short: as §1

NCI-H1650 = system: NCI-H1650
In short: as §1

COR-L23 = system: COR-L23
In short: as §1

ABC-1 = system: ABC-1
In short: as §1

NCI-H3122 = system: NCI-H3122
In short: as §1

NCI-H441 = system: NCI-H441
In short: as §1

PC-14 = system: PC-14
In short: as §1

NCI-H1993 = system: NCI-H1993
In short: as §1

NCI-H647 = system: NCI-H647
In short: as §1

EKVX = system: EKVX
In short: as §1

EPLC-272H = system: EPLC-272H
In short: as §1

NCI-H2023 = system: NCI-H2023
In short: as §1

`Clc1ccc(Nc2nnc(Cc3ccncc3)c3ccccc23)cc1` [Vatalanib] + Nc1ncn([C@H]2C[C@H](O)[C@@H](CO)O2)c(=O)n1 [Decitabine] (partner 2 µM) gave a relative viability (201T; first compound 0.04 µM) of 0.832, a relative viability (201T; first compound 0.1265 µM) of 0.85 and a relative viability (201T; first compound 0.4 µM) of 0.881. It also gave a relative viability (201T; first compound 1.265 µM) of 0.867, a relative viability (201T; first compound 4 µM) of 0.861 and a relative viability (NCI-H2085; first compound 0.04 µM) of 0.556. For the same compound, the relative viability (NCI-H2085; first compound 0.1265 µM) was 0.552, the relative viability (NCI-H2085; first compound 0.4 µM) was 0.476 and the relative viability (NCI-H2085; first compound 1.265 µM) was 0.52. The relative viability (NCI-H2085; first compound 4 µM) was 0.527, the relative viability (LOU-NH91; first compound 0.04 µM) was 0.766 and the relative viability (LOU-NH91; first compound 0.1265 µM) was 0.81. For the same compound, the relative viability (LOU-NH91; first compound 0.4 µM) was 0.766, the relative viability (LOU-NH91; first compound 1.265 µM) was 0.824 and the relative viability (LOU-NH91; first compound 4 µM) was 0.823. For the same compound, the relative viability (HCC-44; first compound 0.04 µM) was 0.961, the relative viability (HCC-44; first compound 0.1265 µM) was 0.944 and the relative viability (HCC-44; first compound 0.4 µM) was 0.976. The relative viability (HCC-44; first compound 1.265 µM) was 0.906, the relative viability (HCC-44; first compound 4 µM) was 0.961 and the relative viability (NCI-H1734; first compound 0.04 µM) was 0.575. For the same compound, the relative viability (NCI-H1734; first compound 0.1265 µM) was 0.51, the relative viability (NCI-H1734; first compound 0.4 µM) was 0.592 and the relative viability (NCI-H1734; first compound 1.265 µM) was 0.477. The relative viability (NCI-H1734; first compound 4 µM) was 0.518, the relative viability (RERF-LC-KJ; first compound 0.04 µM) was 0.737 and the relative viability (RERF-LC-KJ; first compound 0.1265 µM) was 0.739. For the same compound, the relative viability (RERF-LC-KJ; first compound 0.4 µM) was 0.866, the relative viability (RERF-LC-KJ; first compound 1.265 µM) was 0.599 and the relative viability (RERF-LC-KJ; first compound 4 µM) was 0.665. The relative viability (NCI-H2405; first compound 0.04 µM) was 0.725, the relative viability (NCI-H2405; first compound 0.1265 µM) was 0.744 and the relative viability (NCI-H2405; first compound 0.4 µM) was 0.866. For the same compound, the relative viability (NCI-H2405; first compound 4 µM) was 0.732, the relative viability (SW 900; first compound 0.04 µM) was 0.421 and the relative viability (SW 900; first compound 0.1265 µM) was 0.457. The relative viability (SW 900; first compound 0.4 µM) was 0.447, the relative viability (SW 900; first compound 1.265 µM) was 0.423 and the relative viability (SW 900; first compound 4 µM) was 0.425. The relative viability (NCI-H520; first compound 0.04 µM) was 0.504, the relative viability (NCI-H520; first compound 0.1265 µM) was 0.446 and the relative viability (NCI-H520; first compound 0.4 µM) was 0.581. For the same compound, the relative viability (NCI-H520; first compound 1.265 µM) was 0.456, the relative viability (NCI-H520; first compound 4 µM) was 0.529 and the relative viability (NCI-H2347; first compound 0.04 µM) was 0.616. It also gave a relative viability (NCI-H2347; first compound 0.1265 µM) of 0.62, a relative viability (NCI-H2347; first compound 0.4 µM) of 0.624 and a relative viability (NCI-H2347; first compound 1.265 µM) of 0.602. It also gave a relative viability (NCI-H2347; first compound 4 µM) of 0.64, a relative viability (NCI-H2170; first compound 0.04 µM) of 0.479 and a relative viability (NCI-H2170; first compound 0.1265 µM) of 0.474. It also gave a relative viability (NCI-H2170; first compound 0.4 µM) of 0.488, a relative viability (NCI-H2170; first compound 1.265 µM) of 0.469 and a relative viability (NCI-H2170; first compound 4 µM) of 0.487. For the same compound, the relative viability (NCI-H1793; first compound 0.04 µM) was 0.374, the relative viability (NCI-H1793; first compound 0.1265 µM) was 0.463 and the relative viability (NCI-H1793; first compound 0.4 µM) was 0.599. For the same compound, the relative viability (NCI-H1793; first compound 1.265 µM) was 0.499, the relative viability (NCI-H1793; first compound 4 µM) was 0.463 and the relative viability (NCI-H1650; first compound 0.04 µM) was 0.361. It also gave a relative viability (NCI-H1650; first compound 0.1265 µM) of 0.414, a relative viability (NCI-H1650; first compound 0.4 µM) of 0.388 and a relative viability (NCI-H1650; first compound 1.265 µM) of 0.373. For the same compound, the relative viability (NCI-H1650; first compound 4 µM) was 0.424, the relative viability (COR-L23; first compound 0.04 µM) was 0.503 and the relative viability (COR-L23; first compound 0.1265 µM) was 0.414. It also gave a relative viability (COR-L23; first compound 0.4 µM) of 0.565, a relative viability (COR-L23; first compound 1.265 µM) of 0.441 and a relative viability (COR-L23; first compound 4 µM) of 0.404. For the same compound, the relative viability (ABC-1; first compound 0.04 µM) was 1.02, the relative viability (ABC-1; first compound 0.1265 µM) was 0.79 and the relative viability (ABC-1; first compound 0.4 µM) was 1.17. For the same compound, the relative viability (ABC-1; first compound 4 µM) was 1.22, the relative viability (NCI-H3122; first compound 0.04 µM) was 0.411 and the relative viability (NCI-H3122; first compound 0.1265 µM) was 0.432. The relative viability (NCI-H3122; first compound 0.4 µM) was 0.406, the relative viability (NCI-H3122; first compound 1.265 µM) was 0.438 and the relative viability (NCI-H3122; first compound 4 µM) was 0.457. The relative viability (NCI-H441; first compound 0.04 µM) was 0.237, the relative viability (NCI-H441; first compound 0.1265 µM) was 0.212 and the relative viability (NCI-H441; first compound 0.4 µM) was 0.206. The relative viability (NCI-H441; first compound 1.265 µM) was 0.228, the relative viability (NCI-H441; first compound 4 µM) was 0.242 and the relative viability (PC-14; first compound 0.04 µM) was 0.231. The relative viability (PC-14; first compound 0.1265 µM) was 0.213, the relative viability (PC-14; first compound 0.4 µM) was 0.219 and the relative viability (PC-14; first compound 1.265 µM) was 0.174. The relative viability (PC-14; first compound 4 µM) was 0.253, the relative viability (NCI-H1993; first compound 0.04 µM) was 0.57 and the relative viability (NCI-H1993; first compound 0.1265 µM) was 0.607. It also gave a relative viability (NCI-H1993; first compound 0.4 µM) of 0.541, a relative viability (NCI-H1993; first compound 1.265 µM) of 0.488 and a relative viability (NCI-H1993; first compound 4 µM) of 0.495. The relative viability (NCI-H647; first compound 0.04 µM) was 0.4, the relative viability (NCI-H647; first compound 0.1265 µM) was 0.375 and the relative viability (NCI-H647; first compound 0.4 µM) was 0.562. For the same compound, the relative viability (NCI-H647; first compound 1.265 µM) was 0.36, the relative viability (NCI-H647; first compound 4 µM) was 0.375 and the relative viability (EKVX; first compound 0.04 µM) was 0.41. The relative viability (EKVX; first compound 0.1265 µM) was 0.346, the relative viability (EKVX; first compound 0.4 µM) was 0.308 and the relative viability (EKVX; first compound 1.265 µM) was 0.338. For the same compound, the relative viability (EKVX; first compound 4 µM) was 0.296, the relative viability (EPLC-272H; first compound 0.04 µM) was 0.357 and the relative viability (EPLC-272H; first compound 0.1265 µM) was 0.342. The relative viability (EPLC-272H; first compound 0.4 µM) was 0.35, the relative viability (EPLC-272H; first compound 1.265 µM) was 0.356 and the relative viability (EPLC-272H; first compound 4 µM) was 0.378. The relative viability (NCI-H2023; first compound 0.04 µM) was 0.22, the relative viability (NCI-H2023; first compound 0.1265 µM) was 0.205 and the relative viability (NCI-H2023; first compound 0.4 µM) was 0.231. The relative viability (NCI-H2023; first compound 1.265 µM) was 0.221 and the relative viability (NCI-H2023; first compound 4 µM) was 0.219.
